For 32 compounds, melting point results are on record in patent publication US6969711B2, “Cyclic diamine compounds and medicine containing the same” (Kowa Company, Ltd., priority 1997, dated 2005).

SMILES strings stand for the structures.

The term melting point denotes the temperature, or range, at which the solid turns liquid.

For the compound `CCCCCCCN(CCN1CCN(CCSc2nc3cccc(C(F)(F)F)c3o2)CC1)C(=O)Nc1c(C(C)C)cc(O)cc1C(C)C.Cl`, the melting point was 95 to 97 °C.

As to `CCCCCCCN(CCN1CCN(CCCSc2nc3ccccc3o2)CC1)C(=O)Nc1c(SC)cc(C)nc1SC.Cl.Cl`, the melting point was 208 to 210 °C.

With `CCCCCCCN(CCN1CCN(CCSc2nc3ccccc3o2)CC1)C(=O)Nc1c(SCC)cc(C)nc1SCC.Cl.Cl`, the melting point is 124 to 127 °C.

Take `CCCCCCCN(CCN1CCN(CCSc2nc3ccccc3s2)CC1)C(=O)Nc1c(SCC)cc(C)nc1SCC.Cl.Cl`: the melting point lay within 136 to 138 °C.

The compound `CCCCCCCN(CCN1CCN(CCSc2nc3ccccc3[nH]2)CC1)C(=O)Nc1c(SCC)cc(C)nc1SCC.Cl.Cl` came in with a melting point of 134 to 137 °C.

`CCSc1cc(C)nc(SCC)c1NC(=O)CN1CCN(CCSc2nc3ncccc3o2)CC1.O=C(O)/C=C\C(=O)O.O=C(O)/C=C\C(=O)O` came in with a melting point of 148 to 149 °C.

Compound `CC(C)c1ccc(NS(C)(=O)=O)c(C(C)C)c1NC(=O)CN1CCN(CCSc2nc3cccc(C(F)(F)F)c3o2)CC1.O=C(O)/C=C\C(=O)O.O=C(O)/C=C\C(=O)O` gave a melting point of 172 to 174 °C.

`CC(C)c1cc(OC(=O)[C@H](C)N)cc(C(C)C)c1NC(=O)CN1CCN(CCSc2nc3ccccc3o2)CC1.O=C(O)C(F)(F)F.O=C(O)C(F)(F)F.O=C(O)C(F)(F)F` yielded a melting point of 183 to 184 °C.

`CC(C)c1cc(OC(=O)[C@H](C)N)cc(C(C)C)c1NC(=O)CN1CCN(CCSc2nc3cccc(C(F)(F)F)c3o2)CC1.O=C(O)C(F)(F)F.O=C(O)C(F)(F)F.O=C(O)C(F)(F)F` registered a melting point of 124 to 126 °C.

With `CSc1cc(C)nc(SC)c1NC(=O)CCN1CCN(CCCSc2nc3ncccc3o2)CC1.Cl.Cl`, the melting point lay within 224 to 227 °C.

In the case of `Cc1cc(SC(C)C)c(NC(=O)CN2CCN(CCSc3nc4ccccc4o3)CC2)c(SC(C)C)n1.Cl.Cl`, the melting point lay in the range of 159 to 164 °C.

Compound `Cc1cc(SC(C)C)c(NC(=O)CN2CCN(CCSc3nc4ccccc4s3)CC2)c(SC(C)C)n1.Cl.Cl` had a melting point of 139 to 142 °C.

With `Cc1cc(SC(C)C)c(NC(=O)CN2CCN(CCSc3nc4ncccc4o3)CC2)c(SC(C)C)n1.Cl.Cl`, the melting point fell in the range of 170 to 172 °C.

Compound `Cc1cc(SC(C)C)c(NC(=O)CN2CCN(CCCSc3nc4ccccc4o3)CC2)c(SC(C)C)n1.Cl.Cl` had a melting point of 178 to 181 °C.

As for `CSc1ncccc1NC(=O)CN1CCN(CCSc2nc3ccccc3o2)CC1.Cl.Cl`, the melting point was in the range of 186 to 189 °C.

Regarding `CSc1nc(C)ccc1NC(=O)CN1CCN(CCSc2nc3ccccc3o2)CC1.Cl.Cl`, the melting point fell in the range of 200 to 203 °C.

On to `COc1ccc(C(C)C)c(NC(=O)CN2CCN(CCSc3nc4ccccc4o3)CC2)c1C(C)C.Cl.Cl`, for which the melting point was 218 to 222 °C.

In turn, `CCOP(=O)(OCC)Oc1cc(C(C)C)c(NC(=O)CN2CCN(CCSc3nc4ccccc4o3)CC2)c(C(C)C)c1` had a melting point of 108 to 109 °C.

`CC(C)c1cccc(C(C)C)c1NC(=O)CN1CCN(CCSc2nc3ccccc3s2)CC1` [Example 2, 2-[4-[2-(benzothiazol-2-ylthio)ethyl]-piperazin-1-yl]-N-(2,6-diisopropylphenyl)acetamide] registered a melting point of 170 to 171 °C.

With `CC(C)c1cccc(C(C)C)c1NC(=O)CN1CCN(CCSc2nc3ccccc3[nH]2)CC1` [Example 3, 2-[4-[2-(benzimidazol-2-ylthio)ethyl]-piperazin-1-yl]-N-(2,6-diisopropylphenyl)acetamide], the melting point is 207 °C (dec.).

Regarding `COC(=O)c1cccc2nc(SCCN3CCN(CC(=O)Nc4c(C(C)C)cccc4C(C)C)CC3)oc12` [Example 4, 2-[4-[2-(7-methoxycarbonylbenzoxazol-2-ylthio)ethyl]-piperazin-1-yl]-N-(2,6diisopropylphenyl)acetamide], the melting point fell in the range of 159 to 161 °C.

`CC(C)c1cccc(C(C)C)c1NC(=O)CN1CCN(CCCSc2nc3ccccc3s2)CC1` [Example 8, 2-[4-[3-(benzothiazol-2-ylthio)propyl]piperazin-1-yl]-N-(2,6-diisopropylphenyl)acetamide] showed a melting point of 113 to 115 °C.

In the case of `COC(=O)c1cccc2oc(SCCCN3CCN(CC(=O)Nc4c(C(C)C)cccc4C(C)C)CC3)nc12` [Example 11, 2-[4-[3-(4-methoxycarbonylbenzoxazol-2-ylthio)propyl]piperazin-1-yl]-N-(2,6-diisopropylphenyl)acetamide], the melting point is 132 to 133 °C.

`CC(C)c1cccc(C(C)C)c1NC(=O)CN1CCN(CCCSc2nc3ncccc3o2)CC1` [Example 12, 2-[4-[3-(oxazolo[4,5-b]pyridine-2-ylthio)propyl]piperazin-1-yl]-N-(2,6-diisopropylphenyl)acetamide] had a melting point of 125 to 127 °C.

`COC(=O)c1cccc2nc(SCCCN3CCCN(CC(=O)Nc4c(C(C)C)cccc4C(C)C)CC3)oc12` [Example 14, 2-[4-[3-(7-methoxycarbonylbenzoxazol-2-ylthio)propyl]homopiperazin-1-yl]-N-(2,6-diisopropylphenyl)acetamide] gave a melting point of 83 to 85 °C.

Turning to `CC(C)c1cccc(C(C)C)c1NC(=O)CN1CCCN(CCCSc2nc3ncccc3o2)CC1` [Example 15, 2-[4-[3-(oxazolo[4,5-b]pyridin-2-ylthio)propyl]homopiperazin-1-yl]-N-(2,6-diisopropylphenyl)acetamide], the melting point fell in the range of 73 to 75 °C.

Compound `CCCCCCCN(CCN1CCN(CCSc2nc3ccccc3o2)CC1)C(=O)Nc1c(C(C)C)cccc1C(C)C` [Example 16, N-[2-[4-[2-(benzoxazol-2-ylthio)ethyl]piperazin-1-yl]ethyl]-N′-(2,6-diisopropylphenyl)-N-heptylurea] came in with a melting point of 110 to 111 °C.

Turning to `CCCCCCCN(CCN1CCN(CCSc2nc3cccc(C(=O)OC)c3o2)CC1)C(=O)Nc1c(C(C)C)cccc1C(C)C` [Example 17, N′-(2,6-diisopropylphenyl)-N-heptyl-N-[2-[4-[2-(7-methoxycarbonylbenzoxazol-2-ylthio)-ethyl]piperazin-1-yl]ethyl]urea], the melting point fell in the range of 125 to 126 °C.

For `CC(C)c1cccc(C(C)C)c1NC(=O)CCN1CCN(CCCSc2nc3ccccc3o2)CC1` [Example 23, 3-[4-[3-(benzoxazol-2-ylthio)propyl]piperazin-1-yl]-N-(2,6-diisopropylphenyl)propanamide], the melting point fell in the range of 93 to 95 °C.

Consider `CSc1cc(C)nc(SC)c1NC(=O)CCN1CCN(CCSc2nc3ccccc3o2)CC1` [Example 27, 3-[4-[2-(benzoxazol-2-ylthio)ethyl]piperazin-1-yl]-N-[2,4-bis(methylthio)-6-methyl-3pyridyl]propanamide], for which the melting point was in the range of 110 to 112 °C.

In the case of `CSc1cc(C)nc(SC)c1NC(=O)CN1CCN(CCCSc2nc3ccccc3o2)CC1` [Example 28, 2-[4-[3-(benzoxazol-2-ylthio)propyl]piperazin-1-yl]-N-[2,4-bis(methylthio)-6-methyl-3-pyridyl]acetamide], the melting point is 160 to 161 °C.

For the compound `COC(=O)c1cccc2nc(SCCCN3CCN(CC(=O)Nc4c(SC)cc(C)nc4SC)CC3)oc12` [Example 30, N-[2,4-bis(methylthio)-6-methyl-3pyridyl)-2-[4-[3-(7-methoxycarbonylbenzoxazol-2-ylthio)propyl]piperazin-1-yl]acetamide], the melting point fell in the range of 76 to 79 °C.
